{
  "source": "patent US8093286B2",
  "about": "“Methods for treatment with bucindolol based on genetic targeting” (The Regents of the University of Colorado, a body corporate, priority 2004, dated 2012)",
  "key": {"β1-Gly389 receptor": {"target": "T1, β1-Gly389 receptor (Homo sapiens, UniProt P08588)", "T1 construct": "expressed in transfected cells", "assay": "norepinephrine-stimulated cAMP accumulation in stably transfected CHW cells (functional antagonism)", "assay_type": "cell-based", "method": "(§1) Chinese hamster fibroblasts (CHW cells) were stably transfected with the human Arg389 and Gly389 cDNAs as previously described (Mason et al., 1999). Lines with equivalent levels of expression as determined by radioligand binding were studied to ascertain the antagonist effect of bucindolol on norepinephrine stimulated cAMP accumulation. Cells in monolayers were treated with 10 μM norepinephrine in the absence and presence of various concentrations of bucindolol for 20 min at 37° C. and [^3H]cAMP isolated by column chromatography (Salomon, 1991).\n(§2) Chinese hamster fibroblasts were stably transfected using constructs previously described so as to separately express the human β1-Arg389 or β1-Gly389 receptors. β1AR expression, and affinity for bucindolol, were determined by radioligand binding studies with ^125I-cyanopindolol (125I-CYP), using 1 μM propranolol to define nonspecific binding as described. Whole cell cAMP accumulation studies were carried out by the [^3H]-adenine method using two lines with equivalent expression levels of the two receptors as indicated. Attached cells were exposed to vehicle (basal), 10 μM norepinephrine or 10 uM norepinephrine with the indicated concentrations of bucindolol for 15 min at 37° C."}, "β1-Arg389 receptor": {"target": "T2, β1-Arg389 receptor (Homo sapiens, UniProt P08588, G389R)", "T2 construct": "expressed in transfected cells", "T2 sequence (P08588 whole entry G389R)": "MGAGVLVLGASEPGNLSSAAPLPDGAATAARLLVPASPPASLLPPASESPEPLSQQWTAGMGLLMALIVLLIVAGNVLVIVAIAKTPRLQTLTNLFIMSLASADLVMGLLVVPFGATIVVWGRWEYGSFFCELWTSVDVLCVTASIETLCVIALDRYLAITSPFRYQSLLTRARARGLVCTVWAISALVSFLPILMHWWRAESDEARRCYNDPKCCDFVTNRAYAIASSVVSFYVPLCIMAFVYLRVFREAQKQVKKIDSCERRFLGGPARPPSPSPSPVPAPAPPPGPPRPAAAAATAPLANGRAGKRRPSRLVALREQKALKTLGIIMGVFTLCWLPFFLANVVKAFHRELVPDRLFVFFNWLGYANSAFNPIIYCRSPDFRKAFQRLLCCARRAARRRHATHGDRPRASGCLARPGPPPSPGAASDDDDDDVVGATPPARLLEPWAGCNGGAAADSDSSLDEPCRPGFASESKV", "assay": "norepinephrine-stimulated cAMP accumulation in stably transfected CHW cells (functional antagonism)", "assay_type": "cell-based", "method": "as §1, §2"}, "[1]": {"conditions": "bucindolol alone up to 10 μM, hydrochloride"}},
  "note": "“Also recorded” adds a separate entry of the source. Structures can show the parent of a compound that is named as a salt.",
  "data": [
    {"smiles": "CC(C)(Cc1c[nH]c2ccccc12)NCC(O)COc1ccccc1C#N", "note": "(centres unmarked) [bucindolol, (2-{2-hydroxy-3{{2-(3-indolyl)-1,1-dimethylethyl}amino}propoxy}-benzonitrile hydrochloride)]", "values": [
      {"measurement": "maximal decrease of cAMP", "setting": "β1-Gly389 receptor; 10 μM norepinephrine + bucindolol, Gly389 cells, N=4", "value": "115 ± 23", "unit": "fmol/mL"},
      {"measurement": "stimulation of cAMP by bucindolol alone (intrinsic sympathomimetic activity)", "setting": "β1-Gly389 receptor; [1]", "value": "no stimulation of cAMP; also recorded: no evidence for intrinsic sympathomimetic activity"},
      {"measurement": "inhibition at 0.1 µM", "setting": "β1-Arg389 receptor; 0.1 μM bucindolol, read-out: inhibition of the Arg389 cAMP response", "value": "~80", "unit": "%"},
      {"measurement": "maximal decrease of cAMP", "setting": "β1-Arg389 receptor; 10 μM norepinephrine + bucindolol, Arg389 cells, N=4", "value": "435 ± 80", "unit": "fmol/mL"},
      {"measurement": "stimulation of cAMP by bucindolol alone (intrinsic sympathomimetic activity)", "setting": "β1-Arg389 receptor; [1]", "value": "no stimulation of cAMP; also recorded: no evidence for intrinsic sympathomimetic activity"}
    ]}
  ]
}
